Source: ChEMBL document CHEMBL3871286, “Tetrahydroquinoline-based tricyclic amines as potent and selective agonists of the 5-HT2C receptor” (Bioorg Med Chem Lett, 2016)

What was measured:
[1] = target: T1, 5-hydroxytryptamine receptor 2C (Homo sapiens, UniProt P28335); assay: Agonist activity at unedited 5-HT2C receptor (unknown origin) expressed in HEK293 cells assessed as [3H]inositol phosphate accumulation after 2 hrs by scintillation counting; format: functional, cell-based
T1 sequence (P28335 whole entry): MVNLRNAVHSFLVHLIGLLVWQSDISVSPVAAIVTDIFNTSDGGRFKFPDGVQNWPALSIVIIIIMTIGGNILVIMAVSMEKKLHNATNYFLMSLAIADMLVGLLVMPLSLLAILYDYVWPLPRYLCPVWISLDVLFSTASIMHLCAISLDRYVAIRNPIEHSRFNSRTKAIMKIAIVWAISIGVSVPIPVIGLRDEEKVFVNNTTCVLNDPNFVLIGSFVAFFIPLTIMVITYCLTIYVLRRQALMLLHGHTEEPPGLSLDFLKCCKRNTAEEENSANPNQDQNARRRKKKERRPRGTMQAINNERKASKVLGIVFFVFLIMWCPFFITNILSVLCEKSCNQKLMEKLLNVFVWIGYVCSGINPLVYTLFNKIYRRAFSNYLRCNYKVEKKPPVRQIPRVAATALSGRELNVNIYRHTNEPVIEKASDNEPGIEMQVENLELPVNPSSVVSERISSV

[2] = target: T2, 5-hydroxytryptamine receptor 2C (Homo sapiens) (UniProt P28335); assay: Agonist activity at unedited 5-HT2C receptor (unknown origin) expressed in HEK293 cells assessed as [3H]inositol phosphate accumulation at 10 uM after 2 hrs by scintillation counting relative to serotonin; format: functional, cell-based
T2 sequence (whole entry): T1 sequence (P28335 whole entry)

[3] = target: T3, 5-hydroxytryptamine receptor 2B (Homo sapiens, UniProt P41595); assay: Agonist activity at 5-HT2B receptor (unknown origin) expressed in HEK293 cells assessed as [3H]inositol phosphate accumulation after 2 hrs by scintillation counting; format: cell-based
[4] = target: 5-HT2B receptor (Homo sapiens, UniProt P41595); assay: Agonist activity at 5-HT2B receptor (unknown origin) expressed in HEK293 cells assessed as [3H]inositol phosphate accumulation at 10 uM after 2 hrs by scintillation counting relative to serotonin; format: cell-based; conditions: HEK293 cells expressing 5-HT2B receptor
[5] = target: T1, 5-hydroxytryptamine receptor 2C; assay: Displacement of [125I]DOI from recombinant human 5-HT2C receptor expressed in HEK293 cell membranes after 1 hr by scintillation counting
[6] = target: T3, 5-hydroxytryptamine receptor 2B; assay: Displacement of [125I]DOI from recombinant human 5-HT2B receptor expressed in HEK293 cell membranes after 1 hr by scintillation counting
[7] = target: T4, 5-hydroxytryptamine receptor 2A (Homo sapiens, UniProt P28223); assay: Agonist activity at 5-HT2A receptor (unknown origin) expressed in HEK293 cells assessed as [3H]inositol phosphate accumulation after 2 hrs by scintillation counting; format: cell-based
[8] = target: 5-HT2A receptor (Homo sapiens, UniProt P28223); assay: Agonist activity at 5-HT2A receptor (unknown origin) expressed in HEK293 cells assessed as [3H]inositol phosphate accumulation at 10 uM after 2 hrs by scintillation counting relative to serotonin; format: cell-based; conditions: HEK293 cells expressing 5-HT2A receptor
[9] = target: T4, 5-hydroxytryptamine receptor 2A; assay: Displacement of [125I]DOI from recombinant human 5-HT2A receptor expressed in HEK293 cell membranes after 1 hr by scintillation counting
[10] = system: Rattus norvegicus; assay: Antiobesity activity in Sprague-Dawley rat assessed as reduction in food intake at 1 mg/kg, po administered via oral gavage 30 mins prior to food presentation measured 60 mins post drug administration; format: functional; parameters: scale not given: the % may be the effect or the level left
[11] = system: Rattus norvegicus; assay: Antiobesity activity in Sprague-Dawley rat assessed as reduction in food intake at 3 mg/kg, po administered via oral gavage 30 mins prior to food presentation measured 60 mins post drug administration; format: functional; parameters: scale not given: the % may be the effect or the level left
[12] = system: Rattus norvegicus; assay: Antiobesity activity in Sprague-Dawley rat assessed as reduction in food intake at 10 mg/kg, po administered via oral gavage 30 mins prior to food presentation measured 60 mins post drug administration; format: functional; parameters: scale not given: the % may be the effect or the level left
[13] = system: Rattus norvegicus; assay: Antiobesity activity in Sprague-Dawley rat assessed as reduction in food intake at 5 mg/kg, po administered via oral gavage 30 mins prior to food presentation measured 60 mins post drug administration; format: functional; parameters: scale not given: the % may be the effect or the level left

T3 sequence (P41595 whole entry): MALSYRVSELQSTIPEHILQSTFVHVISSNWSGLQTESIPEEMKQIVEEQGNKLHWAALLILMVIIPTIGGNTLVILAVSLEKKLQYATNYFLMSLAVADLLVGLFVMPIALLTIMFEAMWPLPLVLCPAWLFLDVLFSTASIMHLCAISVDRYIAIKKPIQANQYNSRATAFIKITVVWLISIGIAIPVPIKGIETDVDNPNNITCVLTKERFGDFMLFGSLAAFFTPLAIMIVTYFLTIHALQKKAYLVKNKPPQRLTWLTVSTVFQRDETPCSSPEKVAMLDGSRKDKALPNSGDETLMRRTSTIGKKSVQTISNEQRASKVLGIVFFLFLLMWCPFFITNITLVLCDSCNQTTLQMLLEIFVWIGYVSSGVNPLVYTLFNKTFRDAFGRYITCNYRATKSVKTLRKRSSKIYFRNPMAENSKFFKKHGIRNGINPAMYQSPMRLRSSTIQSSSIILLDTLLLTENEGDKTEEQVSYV
Chain of 5-HT2B receptor (P41595 whole entry): as above
Chain of 5-HT2A receptor (P28223 whole entry): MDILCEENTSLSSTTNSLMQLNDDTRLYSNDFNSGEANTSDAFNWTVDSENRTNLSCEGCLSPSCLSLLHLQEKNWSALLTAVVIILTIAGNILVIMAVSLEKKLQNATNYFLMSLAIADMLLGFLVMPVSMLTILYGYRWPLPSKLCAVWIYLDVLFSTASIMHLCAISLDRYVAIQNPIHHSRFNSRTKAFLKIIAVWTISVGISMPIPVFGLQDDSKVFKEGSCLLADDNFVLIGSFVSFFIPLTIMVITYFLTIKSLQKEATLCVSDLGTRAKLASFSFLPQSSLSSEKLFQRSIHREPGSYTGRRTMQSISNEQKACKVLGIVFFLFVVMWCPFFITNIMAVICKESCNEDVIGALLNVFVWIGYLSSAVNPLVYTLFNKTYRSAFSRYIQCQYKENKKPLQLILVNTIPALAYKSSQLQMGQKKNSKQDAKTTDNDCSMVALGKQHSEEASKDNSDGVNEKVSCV
T4 sequence (P28223 whole entry): as above

Compound | EC50 ([1]; read-out: pEC50 (converted)) [nM] | Emax [2] [%] | EC50 [3] [nM] | Emax at 2 h, 10 µM [4] [%] | other results
CCSc1cccc2c1CCC1CNCCN21 (stereo unspecified) | 0.316 | 101 | 79.4 | 46 | –
c1cc(Cc2ccc3c(c2)OCO3)c2c(c1)N1CCNCC1CC2 (stereo unspecified) | 6.31 | 100 | 3980 | 26 | Ki [5]: 0.794 nM; Ki [6]: 126 nM; EC50 [7]: 200 nM; Emax at 2 h, 10 µM [8]: 64%; Ki [9]: 1.58 nM
CC1(C)Cc2ccccc2N2CCNCC21 (stereo unspecified) | > 1000 | – | > 1000 | – | –
COc1ccc2c(c1)CCC1CNCCN21 (stereo unspecified) | 251 | 101 | 794 | 57 | –
Fc1ccc2c(c1)CCC1CNCCN21 (stereo unspecified) | 3.16 | 96 | 126 | 44 | –
Clc1cccc2c1N1CCCNCCC1CC2 (stereo unspecified) | 25.1 | 85 | 100 | 20 | –
c1ccc2c(c1)CC[C@H]1CCNCCCN21 | > 10000 | – | > 10000 | – | –
CCCc1cccc2c1CCC1CNCCN21 (stereo unspecified) | 0.2 | 101 | 200 | 80 | Ki [5]: 0.398 nM; Ki [6]: 25.1 nM; EC50 [7]: 501 nM; Emax at 2 h, 10 µM [8]: 104%; Ki [9]: 6.31 nM; Activity [10]: 66%; Activity [11]: 99%
Clc1cccc(N2CCNCC2)c1 [CHLOROPHENYLPIPERAZINE] | – | 90 | – | 22 | Emax at 2 h, 10 µM [8]: 12%
c1ccc2c(c1)CC[C@@H]1CCNCCCN21 | 63.1 | 86 | 501 | 53 | –
COc1cc2c(cc1Cl)CC[C@@H]1CNCCCN21 | 3.98 | 85 | 63.1 | 84 | –
CCCc1ccc2c(c1)CCC1CNCCN21 (stereo unspecified) | 20 | 100 | 631 | 9 | –
COCc1cccc2c1CCC1CNCCN21 (stereo unspecified) | 20 | 113 | 1260 | 77 | –
Fc1ccc2c(c1Cl)N1CCNCC1CC2 (stereo unspecified) | 6.31 | 94 | 2 | 12 | –
COc1cccc2c1CC[C@@H]1CNCCCN21 | 1000 | 92 | 398 | 74 | –
Cc1cccc2c1N1CCNCC1CC2 (stereo unspecified) | 63.1 | 86 | 50.1 | 10 | –
c1cc(C2CCC2)c2c(c1)N1CCNCC1CC2 (stereo unspecified) | 3.16 | 110 | 39.8 | 112 | –
COc1ccc2c(c1)CC[C@@H]1CNCCCN21 | 631 | 80 | 1260 | 76 | –
c1cc(CC2CCC2)c2c(c1)N1CCNCC1CC2 (stereo unspecified) | 3.16 | 106 | 2000 | 31 | Ki [5]: 0.631 nM; Ki [6]: 63.1 nM; EC50 [7]: 2000 nM; Emax at 2 h, 10 µM [8]: 135%; Ki [9]: 7.94 nM; Activity [10]: 27%; Activity [12]: 99%; Activity [13]: 63%
CCCc1ccc2c(c1)N1CCNCC1CC2 (stereo unspecified) | 63.1 | 87 | 200 | 19 | –
COc1cccc2c1N1CCCNC[C@H]1CC2 | 31.6 | 17 | 100 | 55 | –

Compound | EC50 ([1]; read-out: pEC50 (converted)) [nM] | Emax [2] [%] | EC50 [3] [nM] | Emax at 2 h, 10 µM [4] [%] | other results
c1ccc(-c2cccc3c2CCC2CNCCN32)cc1 (stereo unspecified) | 126 | 97 | 2510 | 72 | –
CC1(C)Cc2cccc(Cl)c2N2CCNCC21 (stereo unspecified) | > 10000 | – | 100 | 84 | Ki [5]: 794 nM; Ki [6]: 6.31 nM; EC50 [7]: > 10000 nM; Ki [9]: 2000 nM
Clc1ccc2c(c1)CCC1CCNCCCN21 (stereo unspecified) | 200 | 83 | 631 | 71 | –
COc1cc2c(c(Cl)c1Cl)N1CCCNC[C@H]1CC2 | 10 | 80 | – | < 5 | –
CC1(C)CC2CNCCN2c2ccccc21 (stereo unspecified) | 1260 | 84 | > 10000 | – | –
Fc1ccc2c(c1)N1CCNCC1CC2 (stereo unspecified) | 0.794 | 100 | 31.6 | 38 | –
COc1ccc2c(c1)N1CCCNC[C@H]1CC2 | 79.4 | 95 | 631 | 37 | –
c1ccc2c(c1)CCC1CCNCCCN21 (stereo unspecified) | – | 99 | 1000 | 60 | EC50 ([1]; read-out: EC50): 130 nM
c1ccc(Cc2cccc3c2CCC2CNCCN32)cc1 (stereo unspecified) | 1.58 | 104 | 2510 | 20 | Ki [5]: 0.631 nM; Ki [6]: 39.8 nM; EC50 [7]: 126 nM; Emax at 2 h, 10 µM [8]: 85%; Ki [9]: 1.58 nM
Fc1ccc2c(c1Cc1ccccc1)CCC1CNCCN21 (stereo unspecified) | 1 | 102 | 631 | 32 | Ki [5]: 0.398 nM; Ki [6]: 12.6 nM; EC50 [7]: 100 nM; Emax at 2 h, 10 µM [8]: 114%; Ki [9]: 0.631 nM
c1ccc2c(c1)CC[C@@H]1CNCCN21 | 2.51 | 97 | 63.1 | 28 | –
Fc1ccc2c(c1Cc1ccccc1)CC[C@@H]1CNCCCN21 | 20 | 108 | 7940 | 71 | –
c1csc(Cc2cccc3c2CCC2CNCCN32)c1 (stereo unspecified) | 0.794 | 106 | 398 | 24 | Ki [5]: 0.316 nM; Ki [6]: 25.1 nM; EC50 [7]: 79.4 nM; Emax at 2 h, 10 µM [8]: 94%; Ki [9]: 25.1 nM
COc1cc2c(cc1Cc1ccccc1)CC[C@@H]1CNCCCN21 | > 1000 | – | > 1000 | – | –
Fc1ccc2c(c1)CC[C@@H]1CNCCCN21 | 25.1 | 94 | 631 | 59 | –
c1cc(OC2CCC2)c2c(c1)N1CCNCC1CC2 (stereo unspecified) | 20 | 98 | 794 | 9 | –
Cc1cccc2c1CCC1CNCCN21 (stereo unspecified) | 2 | 108 | 31.6 | 65 | –
COc1cc2c(cc1Cl)N1CCCNC[C@H]1CC2 | 39.8 | 91 | 158 | 23 | –
COc1ccc2c(c1Cl)N1CCCNC[C@H]1CC2 | 158 | 72 | 7.94 | 7 | –
c1cc(CC2CCC2)c2c(c1)N1CCCNCC1CC2 (stereo unspecified) | 126 | 116 | > 1000 | – | –
c1ccc(Oc2cccc3c2CCC2CNCCN32)cc1 (stereo unspecified) | 100 | 112 | 6310 | 94 | –
